According to ChEMBL document CHEMBL3046638, “Synthesis and anticonvulsant activity of novel imidazol5(4H)one and 5-oxo-4,5-dihydroimidazol-1-yl)propanamide derivatives” (Med Chem Res, 2012):

Tests used:
[1] = tested on: Mus musculus; experiment: Anticonvulsant activity in Mus musculus albino (mouse) assessed as protection against maximal electroshock-induced seizures at 100 mg/kg, po after 1 hr relative to phenytoin; type: functional
[2] = tested on: Mus musculus; experiment: Neurotoxicity in Mus musculus albino (mouse) assessed as stability time on rotorod at 100 mg/kg, po after 30 min; type: toxicity, organism-based; parameters: dose 100 mg/kg, route oral; settings: in vivo, 0.5 h
[3] = tested on: Mus musculus; experiment: Anticonvulsant activity in Mus musculus albino (mouse) assessed as protection against maximal electroshock-induced seizures at 100 mg/kg, po after 1 hr; type: functional

| SMILES | Activity [1] | Time [2] | Activity [3] |
| --- | --- | --- | --- |
| O=C(CNN1C(=O)/C(=C/c2ccc(F)cc2F)N=C1c1ccc(F)cc1)c1ccc(-c2ccccc2)cc1 | 96.42% |  |  |
| CC(C(=O)Nc1ccc(C#N)cc1)N1C(=O)/C(=C/c2ccc(F)cc2F)N=C1c1ccc(F)cc1 (centres undefined) | 96.42% | 285 s |  |
| COc1ccc(C(=O)CNN2C(=O)/C(=C/c3ccc(F)cc3F)N=C2c2ccc(F)cc2)cc1 | 71.42% |  |  |
| Cc1ccc(C(=O)CNN2C(=O)/C(=C/c3ccc(F)cc3F)N=C2c2ccc(F)cc2)cc1 | 92.84% | 174 s |  |
| COc1ccc(NC(=O)C(C)N2C(=O)/C(=C/c3ccc(F)cc3F)N=C2c2ccc(F)cc2)cc1 (centres undefined) | 96.42% | 219 s |  |
| O=C(CNN1C(=O)/C(=C/c2ccc(F)cc2F)N=C1c1ccc(F)cc1)c1ccccc1 | 37.5% |  | 49.96% |
| CC(C(=O)Nc1ccccc1)N1C(=O)/C(=C/c2ccc(F)cc2F)N=C1c1ccc(F)cc1 (centres undefined) | 24.77% |  | -0.94% |
| O=C(CNN1C(=O)/C(=C/c2ccc(F)cc2F)N=C1c1ccc(F)cc1)c1ccc([N+](=O)[O-])cc1 | 64.28% |  |  |
| O=C(CNN1C(=O)/C(=C/c2ccc(F)cc2F)N=C1c1ccc(F)cc1)c1ccc(O)cc1 | 57.15% |  |  |
